Here are results for 51 compounds from patent US9732075B2, “Benzimidazole-proline derivatives” (IDORSIA PHARMACEUTICALS LTD, priority 2012, dated 2017).

Assay [1] addresses human orexin-1 receptor (Homo sapiens (Human), UniProt O43613). In words: In vitro assay: intracellular calcium measurements (FLIPR), antagonistic activity. It counts as cell-based. The settings on record: CHO cells expressing human orexin-1 receptor, orexin-A agonist, geometric mean, read-out: IC50 Ox1. A digest of the protocol:
(§1)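 hOX1R/hOX2R CHO cells, fluo-4 AM + 5 mM probenecid, 50 min 37 °C then 30 min RT. Cpd 120 min, then orexin-A 3 nM final; FLIPR peak height vs vehicle. IC50, geometric mean of repeats.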
In general terms: A change in cytosolic calcium serves as a functional read-out for many receptors and channels.

The target in assay [2] is human orexin-2 receptor (Homo sapiens (Human), UniProt O43614). The description is as above. It counts as cell-based. The conditions noted are these: CHO cells expressing human orexin-2 receptor, orexin-A agonist, geometric mean, read-out: IC50 Ox2. A digest of the protocol:
as §1

Sequence of human orexin-2 receptor (O43614 whole entry): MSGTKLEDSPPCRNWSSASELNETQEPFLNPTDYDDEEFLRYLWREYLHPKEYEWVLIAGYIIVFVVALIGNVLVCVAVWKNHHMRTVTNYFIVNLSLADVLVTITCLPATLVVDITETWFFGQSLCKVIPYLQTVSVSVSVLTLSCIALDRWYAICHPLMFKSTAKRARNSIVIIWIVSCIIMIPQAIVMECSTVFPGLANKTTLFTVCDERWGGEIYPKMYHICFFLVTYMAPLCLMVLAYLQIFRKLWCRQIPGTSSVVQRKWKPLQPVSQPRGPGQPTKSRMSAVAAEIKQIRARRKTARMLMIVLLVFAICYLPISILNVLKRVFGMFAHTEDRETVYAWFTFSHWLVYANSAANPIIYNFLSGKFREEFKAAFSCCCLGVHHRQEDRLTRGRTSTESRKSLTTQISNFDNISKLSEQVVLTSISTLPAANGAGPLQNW
Sequence of human orexin-1 receptor (O43613 whole entry): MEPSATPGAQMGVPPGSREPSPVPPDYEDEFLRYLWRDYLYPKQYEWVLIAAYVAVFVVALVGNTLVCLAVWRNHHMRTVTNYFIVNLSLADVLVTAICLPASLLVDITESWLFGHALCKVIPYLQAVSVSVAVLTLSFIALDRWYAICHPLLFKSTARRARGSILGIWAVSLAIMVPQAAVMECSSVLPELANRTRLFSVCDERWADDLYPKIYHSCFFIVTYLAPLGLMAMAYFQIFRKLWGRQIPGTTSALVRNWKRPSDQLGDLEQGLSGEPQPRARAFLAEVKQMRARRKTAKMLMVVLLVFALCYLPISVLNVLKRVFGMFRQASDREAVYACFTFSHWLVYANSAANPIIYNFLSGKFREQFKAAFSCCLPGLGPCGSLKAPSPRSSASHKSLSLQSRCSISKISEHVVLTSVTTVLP

What is called IC50 is the concentration at which inhibition is half-maximal. As for `COc1cc2nc([C@]3(C)CCCN3C(=O)c3cc(C)ccc3-n3nccn3)n(C)c2cc1OC` [Ex. 7.9], the concentration for half-maximal inhibition (IC50) in assay [1] and in assay [2] was 0.028 µM each time.
`Cc1ccc(-c2ccc(F)cc2)c(C(=O)N2CCC[C@@]2(C)c2nc3cc(C(F)(F)F)c(Cl)cc3[nH]2)c1` [Ex. 5.152]: the half-inhibitory concentration (IC50) in assay [1] turned out to be 0.024 µM; in assay [2] it was 0.051 µM.
On to `CSc1cccc2nc([C@@H]3CCCN3C(=O)c3cnc(C)nc3-c3ccc(F)cc3)[nH]c12` [Ex. 1.80], for which the IC50 in assay [1] was determined as 0.041 µM; in assay [2], 0.564 µM.
For the compound `Cc1ccc(-c2cccc(C)c2C)c(C(=O)N2CCC[C@@]2(C)c2nc3cc(C(F)(F)F)c(Cl)cc3[nH]2)c1` [Ex. 5.161], the values for the IC50 in assay [1] and in assay [2] were 0.405 µM and 0.388 µM, respectively.
`Cc1cc2nc([C@]3(C)CCCN3C(=O)c3cc(Cl)ccc3-n3nccn3)[nH]c2cc1C` [Ex. 5.53]: the concentration for half-maximal inhibition (IC50) was 0.024 µM in assay [1] and 0.023 µM in assay [2].
For `Cc1ccc(-n2nccn2)c(C(=O)N2CCC[C@@]2(C)c2nc3cc(C)c(C)cc3[nH]2)c1` [Ex. 5.10], the IC50 was found to be 0.006 µM in assay [1] and 0.016 µM in assay [2].
Turning to `COCCn1c([C@]2(C)CCCN2C(=O)c2cc(C)ccc2-c2cccc(C)c2)nc2cc(C)c(C)cc21` [Ex. 7.29], the values for the IC50 in assay [1] and in assay [2] were 0.023 µM and 0.07 µM, respectively.
As to `C=C1C[C@@H](c2nc3ccc(Cl)c(C)c3[nH]2)N(C(=O)c2cc(C)ccc2-n2cccn2)C1` [Ex. 6.134], the 50% inhibitory concentration (IC50) in assay [1] was 0.075 µM; in assay [2], 0.01 µM.
Regarding `Cc1cc2nc([C@]3(C)CCCN3C(=O)c3ccccc3-n3nccn3)[nH]c2cc1C` [Ex. 5.61], the 50% inhibitory concentration (IC50) in assay [1] is 0.112 µM; in assay [2], 0.026 µM.
With `C=C1CN(C(=O)c2ccccc2-c2ccc(F)c(C)c2)C(C)(c2nc3cc(OC)ccc3[nH]2)C1` (racemic) [Ex. 6.151], the IC50 is 0.046 µM in assay [1] and 0.044 µM in assay [2].
As for `COc1cccc(-c2sc(C)nc2C(=O)N2CCC[C@H]2c2nc3ccc(OC)cc3[nH]2)c1` [Ex. 1.20], the IC50 came to 0.692 µM in assay [1] and 0.121 µM in assay [2].
The like results for `C=C1C[C@@H](c2nc3cc(C(C)(C)C)ccc3[nH]2)N(C(=O)c2ccccc2-n2nccn2)C1` [Ex. 6.162] were, in that order, 0.33 µM and 0.007 µM.
For the compound `C=C1C[C@@H](c2nc3cc(OC)ccc3[nH]2)N(C(=O)c2nc(C)sc2-c2cccc(F)c2)C1` [Ex. 6.33], the concentration for half-maximal inhibition (IC50) was determined as 0.213 µM in assay [1] and 0.023 µM in assay [2].
Turning to `COc1ccccc1-c1nc(C(=O)N2CCC[C@@]2(C)c2nc3c(C)c(Cl)ccc3[nH]2)c(-c2ccc(F)cc2)s1` [Ex. 5.229], the 50% inhibitory concentration (IC50) turned out to be 0.054 µM in assay [1] and 0.858 µM in assay [2].
Turning to `Cc1cc2nc([C@]3(C)CCCN3C(=O)c3ccccc3-c3cccc(F)c3)[nH]c2cc1C` [Ex. 5.105], the IC50 in assay [1] was determined as 0.024 µM; in assay [2], 0.028 µM.
`C[C@@]1(c2nc3cc(C(F)(F)F)ccc3[nH]2)CCCN1C(=O)c1cc(OC(F)(F)F)ccc1-n1nccn1` [Ex. 5.173]: the half-inhibitory concentration (IC50) in assay [1] was 0.29 µM; in assay [2], 1.14 µM.
The like results for `Cc1ccc(-c2ccccc2C(=O)N2CCC[C@@]2(C)c2nc3c(C)c(C)ccc3[nH]2)cc1` [Ex. 5.120] were, in that order, 0.048 µM and 0.026 µM.
Consider `Cc1nc(C(=O)N2CC[C@H](C)[C@H]2c2nc3c(CO)cccc3[nH]2)c(-c2cccc(Cl)c2)s1` [Ex. 4.17], for which the IC50 in assay [1] was determined as 0.014 µM; in assay [2], 1.67 µM.
For `COc1ccc(-n2nccn2)c(C(=O)N2CC[C@H](C)[C@H]2c2nc3cc(OC)c(OC)cc3[nH]2)c1` [Ex. 4.43], the half-maximal inhibitory concentration (IC50) in assay [1] was 0.039 µM; in assay [2] it was 0.097 µM.
The like results for `Cc1cccc(-c2ccc(C)cc2C(=O)N2CCC[C@@]2(C)c2nc3cc(C)c(C)cc3n2CC2CC2)c1` [Ex. 7.26] were, in that order, 0.042 µM and 0.054 µM.
On to `C[C@@]1(c2nc3cc(Cl)c(C(F)(F)F)cc3[nH]2)CCCN1C(=O)c1nc(-c2ccc(F)cc2)sc1-c1ccc(F)cc1` [Ex. 5.291], for which the IC50 amounted to 0.048 µM in assay [1] and 0.347 µM in assay [2].
The like results for `C=C1C[C@@H](c2nc3cc(C(C)(C)C)ccc3[nH]2)N(C(=O)c2cc(C)ccc2-n2nccn2)C1` [Ex. 6.66] were, in that order, 0.057 µM and 0.002 µM.
On to `Cc1nc(C(=O)N2CCC[C@@]2(C)c2nc3ccc(F)c(F)c3[nH]2)c(-c2ccc(F)cc2)s1` [Ex. 5.208], for which the IC50 in assay [1] was determined as 0.053 µM; in assay [2], 0.284 µM.
On to `CO[C@@H]1C[C@@H](c2nc3ccc(Cl)c(C)c3[nH]2)N(C(=O)c2c(-n3nccn3)ccc(C)c2F)C1` [Ex. 3.13], for which the results for the concentration for half-maximal inhibition (IC50) in assay [1] and in assay [2] were 0.016 µM and 0.007 µM, respectively.
For `Cc1nc(C(=O)N2CCCC2c2nc3c(C(F)(F)F)cccc3[nH]2)c(-c2ccccc2)s1` (stereo not drawn) [Ex. 1.129] the same measures were 0.093 µM and 0.124 µM.
In the case of `COc1cc2nc([C@@H]3[C@@H](C)CCN3C(=O)c3ccccc3-c3ccc(C)cc3)[nH]c2cc1OC` [Ex. 4.58], the IC50 in assay [1] worked out at 0.066 µM; in assay [2] it was 2.17 µM.
Consider `Cc1ccc(-c2sc(C)nc2C(=O)N2CCC[C@@]2(C)c2nc3c(F)c(F)ccc3[nH]2)cc1` [Ex. 5.209], for which the values for the IC50 in assay [1] and in assay [2] were 0.017 µM and 0.101 µM, respectively.
The like results for `Cc1ccc(C(=O)N2CC[C@H](C)[C@H]2c2nc3cc(Cl)c(C)cc3[nH]2)c(-c2ccccc2)c1` [Ex. 4.111] were, in that order, 0.002 µM and 0.11 µM.
The like results for `Cc1nc(C(=O)N2CCCC2c2nc3cc(C)c(C)cc3[nH]2)c(-c2ccccc2)s1` (stereo not drawn) [Ex. 1.122] were, in that order, 0.055 µM and 0.045 µM.
Take `C=C1C[C@@H](c2nc3ccc(OC)cc3[nH]2)N(C(=O)c2cc(Cl)ccc2-n2nccn2)C1` [Ex. 6.136]: the half-inhibitory concentration (IC50) in assay [1] amounted to 0.765 µM; in assay [2], 0.004 µM.
On to `Cc1ccc(-n2nccn2)c(C(=O)N2CCC[C@@]2(C)c2nc3c(C)c(Cl)ccc3[nH]2)c1` [Ex. 5.2], for which the figures for the half-maximal inhibitory concentration (IC50) in assay [1] and in assay [2] were 0.002 µM and 0.005 µM, respectively.
The like results for `COc1cc2nc([C@]3(C)CCCN3C(=O)c3nc(C)ccc3-n3cccn3)[nH]c2cc1OC` [Ex. 5.83] were, in that order, 0.426 µM and 0.104 µM.
`Cc1ccc(C(=O)N2CCC[C@@]2(C)c2nc3cc(C)c(C)cc3n2C)c(-n2nccn2)c1` [Ex. 7.11]: the IC50 worked out at 0.017 µM in assay [1] and 0.72 µM in assay [2].
Regarding `COc1cc2nc([C@@H]3[C@@H](C)CCN3C(=O)c3c(F)cccc3-n3nccn3)[nH]c2cc1OC` [Ex. 4.42], the figures for the IC50 in assay [1] and in assay [2] were 0.365 µM and 1.13 µM, respectively.
For `COc1ccc(-n2nccn2)c(C(=O)N2CCC[C@@]2(C)c2nc3cc(C)c(C)cc3[nH]2)c1` [Ex. 5.54], the values for the IC50 in assay [1] and in assay [2] were 0.033 µM and 0.02 µM, respectively.
For `CSc1ccc2nc([C@@H]3CCCN3C(=O)c3cc(C(F)(F)F)ccc3-n3nccn3)[nH]c2c1` [Ex. 1.151] the same measures were 0.763 µM and 0.11 µM.
On to `Cc1nc(C(=O)N2CCC[C@@]2(C)c2nc3c(C)c(Cl)ccc3[nH]2)c(-c2ccccc2)s1` [Ex. 5.3], for which the IC50 was 0.002 µM in assay [1] and 0.004 µM in assay [2].
As to `C=C1C[C@@H](c2nc3ccc(Cl)c(C)c3[nH]2)N(C(=O)c2nc(C)sc2-c2cccc(OC)c2)C1` [Ex. 6.121], the IC50 is 0.001 µM in assay [1] and 0.0005 µM in assay [2].
The like results for `Cc1nc(C(=O)N2CCC[C@H]2c2nc3cc(Cl)ccc3[nH]2)c(-c2cccc(Cl)c2)s1` [Ex. 1.10] were, in that order, 0.098 µM and 0.248 µM.
For `COc1cccc(-c2ccc(C)cc2C(=O)N2CCC[C@@]2(C)c2nc3c(C)c(C)ccc3[nH]2)c1` [Ex. 5.110], the IC50 in assay [1] is 0.013 µM; in assay [2], 0.014 µM.
As to `C=C1C[C@@H](c2nc3cc(C(C)(C)C)ccc3[nH]2)N(C(=O)c2cc(F)ccc2-n2nccn2)C1` [Ex. 6.160], the IC50 came out at 0.326 µM in assay [1] and 0.008 µM in assay [2].
Regarding `Cc1nc(C(=O)N2C[C@@H](F)C[C@H]2c2nc3c(C)c(Cl)ccc3[nH]2)c(-c2ccccc2)s1` [Ex. 2.7], the results for the IC50 in assay [1] and in assay [2] were 0.066 µM and 0.042 µM, respectively.
Turning to `CSc1cccc2[nH]c([C@@H]3CCCN3C(=O)c3c(-n4nccn4)ccc(C)c3F)nc12` [Ex. 1.174], the IC50 in assay [1] was found to be 0.068 µM; in assay [2], 0.087 µM.
Regarding `COc1ccc(-n2nccn2)c(C(=O)N2CCC[C@@]2(C)c2nc3c(F)c(F)ccc3[nH]2)c1F` [Ex. 5.203], the results for the IC50 in assay [1] and in assay [2] were 0.195 µM and 1.38 µM, respectively.
Regarding `Cc1ccc(-c2sccc2C(=O)N2CC[C@H](C)[C@H]2c2nc3c(C(F)(F)F)cccc3[nH]2)cc1C` [Ex. 4.160], the concentration for half-maximal inhibition (IC50) was determined as 0.002 µM in assay [1] and 0.027 µM in assay [2].
For `COc1ccc(-c2sc(C)nc2C(=O)N2CC[C@H](C)[C@H]2c2nc3c(C(F)(F)F)cccc3[nH]2)cc1` [Ex. 4.159], the half-maximal inhibitory concentration (IC50) in assay [1] worked out at 0.004 µM; in assay [2], 0.215 µM.
Consider `CO[C@@H]1C[C@@H](c2nc3ccc(Cl)c(C)c3[nH]2)N(C(=O)c2c(C)cccc2-n2nccn2)C1` [Ex. 3.14], for which the concentration for half-maximal inhibition (IC50) was 0.674 µM in assay [1] and 0.023 µM in assay [2].
In the case of `COc1cc2nc([C@]3(C)CCCN3C(=O)c3cc(C)ccc3-n3cccn3)[nH]c2cc1OC` [Ex. 5.82], the half-inhibitory concentration (IC50) in assay [1] amounted to 0.027 µM; in assay [2], 0.015 µM.
In the case of `CSc1ccc2nc([C@@H]3CCCN3C(=O)c3cnc(C)nc3-c3ccc(F)cc3)[nH]c2c1` [Ex. 1.50], the IC50 in assay [1] is 0.394 µM; in assay [2] it was 0.107 µM.
Consider `C=C1C[C@@H](c2nc3cc(OC)ccc3[nH]2)N(C(=O)c2cc(C)sc2-c2ccc(C)c(C)c2)C1` [Ex. 6.36], for which the IC50 in assay [1] is 0.015 µM; in assay [2], 0.002 µM.
As for `COc1cc2nc([C@@H]3[C@@H](C)CCN3C(=O)c3ccccc3-n3nccn3)[nH]c2cc1OC` [Ex. 4.49], the half-maximal inhibitory concentration (IC50) came to 0.221 µM in assay [1] and 0.533 µM in assay [2].
